The values that follow come from ChEMBL document CHEMBL1126367, “The discovery of a novel calcium channel blocker related to the structure of potassium channel opener cromakalim” (Bioorg Med Chem Lett, 1992).

The test system of assay [1] is Rattus norvegicus. The assay can be described thus: The compound was evaluated for the antihypertensive activity at a dose of 45 umol/kg given orally. The format is functional.
The species named for assay [2] is Rattus norvegicus. Kind of assay: Vasorelaxant potency by relaxation of the methoxamine contracted rat aorta. The format is functional.
The species named for assay [3] is Cavia porcellus. Kind of assay: Percent inhibition of inward calcium current by 10 uM of the compound. The format is functional. Set-up: scale not given: the % may be the effect or the level left.
For assay [4], the species on record is Cavia porcellus. Kind of assay: Percent inhibition of inward calcium current by 50 uM of the compound. Type of assay: functional. The arrangement: scale not given: the % may be the effect or the level left.
For assay [5], the system named is Rattus norvegicus. The assay can be described thus: Compound was evaluated for the antihypertensive activity at a dose of 45 umol/kg given orally; No significant effect on blood pressure. Type of assay: functional, organism-based.
Assay [6] is filed under the species Cavia porcellus. Kind of assay: Percent inhibition of inward calcium current by 100 uM of the compound. Type of assay: functional. The arrangement: scale not given: the % may be the effect or the level left.
For assay [7], the system named is Rattus norvegicus. The assay can be described thus: The compound was evaluated for the antihypertensive activity at a dose of 45 umol/kg given orally. The format is functional.
The subject of assay [8] is Rattus norvegicus. Kind of assay: Compound was evaluated for the antihypertensive activity at a dose of 45 umol/kg given orally; No significant effect on blood pressure. The format is functional, organism-based.

The compound `COC(=O)C1=C(C)NC(C)=C(C(=O)OC)C1c1ccccc1[N+](=O)[O-]` [NIFEDIPINE] displayed an Activity in the assay on Rattus norvegicus [1] of 33%. The same compound had an IC50 in the assay filed under Rattus norvegicus [2] of 4 nM.

`CC1(C)Oc2c(c(=O)n(Cc3ccccc3)c3ccccc23)[C@@H](N2CCCC2=O)[C@@H]1O`: the Activity in the assay listed under Cavia porcellus [3] was found to be 30%; in the assay filed under Cavia porcellus [4], 46%; in the assay listed under Cavia porcellus [6], 55%. Besides, the results for the IC50 result in the assay on Rattus norvegicus [5] and in the assay listed under Rattus norvegicus [2] were “Not Active” and 440 nM, respectively.

The compound `CC1(C)Oc2ccc(C#N)cc2[C@@H](N2CCCC2=O)[C@@H]1O` [CROMAKALIM] had an Activity with Rattus norvegicus [7] of 63%.

`COc1ccc([C@@H]2Sc3ccccc3N(CCN(C)C)C(=O)[C@@H]2OC(C)=O)cc1` [DILTIAZEM]: the IC50 entry with Rattus norvegicus [8] is “Not Active”; in the assay listed under Rattus norvegicus [2], 2380 nM.

The term IC50 denotes the concentration that inhibits the measured activity by half.
